Structures are written as SMILES.

The subject of one test is soybean (Glycine max Merr.): GLXMA. Nature of the test: Test Example 1 pre-emergence herbicidal activity, GLXMA. The format is in vivo. As to conditions: Rate 63 g a.i./ha, visually observed 20th to 23rd day after application. In short, it runs like this:
(§1)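 Pots of upland soil were sown, and one day later WP or EC formulations at set active-ingredient rates were sprayed pre-emergence in 500 L/ha water. Growth control scored visually 20–23 days after application, 0 (as untreated) to 100 (complete kill).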
As for `COc1cccc(C(=O)Nc2c(OC)c(Cl)cc(F)c2-c2nn(C)c(OC(F)F)c2Cl)c1` [Compound 1-28], the “Pre-emergence Herbicidal Activity GLXMA (growth controlling degree)” value was found to be 20%.

The test system of a further test is redroot pigweed (Amaranthus retroflexus L.): AMARE. Nature of the test: Test Example 1 pre-emergence herbicidal activity, AMARE. The class given is in vivo. As to conditions: Rate 63 g a.i./ha, visually observed 20th to 23rd day after application. Put shortly:
as §1
In the case of `COc1cccc(C(=O)Nc2c(OC)c(Cl)cc(F)c2-c2nn(C)c(OC(F)F)c2Cl)c1` [Compound 1-28], the “Pre-emergence Herbicidal Activity AMARE (growth controlling degree)” value was 100%.

For another test, the system named is prickly sida (Sida spinosa L.), SIDSP. The test can be described thus: Test Example 2 post-emergence (foliage treatment) herbicidal activity, SIDSP. As to conditions: 63 g a.i./ha. The format is in vivo. In short, it runs like this:
(§2)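 Each species was evaluated for growth suppression by eye, 0% matching untreated and 100% meaning death, some 20 to 23 days after a single post-emergence foliar treatment applied in 500 L/ha of water carrying 0.1% (v/v) agricultural spreader.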
Take `COc1cccc(C(=O)Nc2c(OC)c(Cl)cc(F)c2-c2nn(C)c(OC(F)F)c2Cl)c1` [Compound 1-28]: the “growth controlling degree, SIDSP” value stood at 90%.

The subject of a further test is barnyardgrass (Echinochiloa oryzicola: ECHOR). The test can be described thus: Test Example 3 water application herbicidal activity (paddy), ECHOR. The class given is in vivo. As to conditions: 63 g a.i./ha, water application under submerged condition at 0.5 leaf stage, visually observed 14th day after application; 0 = untreated control, 100 = complete kill. In short, it runs like this:
(§3)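 Compound, as diluted wettable powder or emulsifiable concentrate, was pipetted into flood water at a set active-ingredient dose. Weeds were treated at 0.5-leaf stage after sowing or tuber planting; 2-leaf rice 4 days post-transplant. Control scored visually, 0 untreated to 100 complete kill, weeds day 14, rice day 21.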
On to `COc1cccc(C(=O)Nc2c(OC)c(Cl)cc(F)c2-c2nn(C)c(OC(F)F)c2Cl)c1` [Compound 1-28], for which the “growth controlling degrees (%) ECHOR” value is 100%.

The subject of the next test is rice (Oryza sativa L.), ORYSA. The test can be described thus: Test Example 2 post-emergence (foliage treatment) herbicidal activity, ORYSA. The format is in vivo. The following applies: 63 g a.i./ha. In short, it runs like this:
(§4)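 Plants grown in upland soil pots were sprayed on foliage at set leaf stages (ECHCG 1.1-2.1, DIGSA 1.0-2.0, AMARE 0.1-1.5, ORYSA 1.0-2). Formulated compound was applied at predetermined active-ingredient amounts in 500 L/ha water with 0.1% (v/v) spreader. Growth control (0–100%) was visually scored 20–23 days later.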
In the case of `COc1cccc(C(=O)Nc2c(OC)c(Cl)cc(F)c2-c2nn(C)c(OC(F)F)c2Cl)c1` [Compound 1-28], the “growth controlling degree, ORYSA” value turned out to be 95%.

The subject of the next test is velvetleaf (Abutilon theophrasti): ABUTH. Nature of the test: Test Example 1 pre-emergence herbicidal activity, ABUTH. The class given is in vivo. The following applies: Rate 63 g a.i./ha, visually observed 20th to 23rd day after application. Put shortly: as §1
Take `COc1cccc(C(=O)Nc2c(OC)c(Cl)cc(F)c2-c2nn(C)c(OC(F)F)c2Cl)c1` [Compound 1-28]: the “Pre-emergence Herbicidal Activity ABUTH (growth controlling degree)” value came to 100%.

Another test concerns japanese bulrush (Scirpus juncoides: SCPJO). Nature of the test: Test Example 3 water application herbicidal activity (paddy), SCPJO. The format is in vivo. The following applies: 63 g a.i./ha, water application under submerged condition at 0.5 leaf stage, visually observed 14th day after application; 0 = untreated control, 100 = complete kill. Put shortly: as §3
For `COc1cccc(C(=O)Nc2c(OC)c(Cl)cc(F)c2-c2nn(C)c(OC(F)F)c2Cl)c1` [Compound 1-28], the “growth controlling degrees (%) SCPJO” value turned out to be 80%.

The next test has as its system crabgrass (Digitaria sanguinalis L.): DIGSA. The test can be described thus: Test Example 1 pre-emergence herbicidal activity, DIGSA. The class given is in vivo. The following applies: Rate 63 g a.i./ha, visually observed 20th to 23rd day after application. Put shortly:
as §1
Turning to `COc1cccc(C(=O)Nc2c(OC)c(Cl)cc(F)c2-c2nn(C)c(OC(F)F)c2Cl)c1` [Compound 1-28], the “Pre-emergence Herbicidal Activity DIGSP (growth controlling degree)” value came to 100%.

The next test has as its system velvetleaf (Abutilon theophrasti), ABUTH. The test can be described thus: Test Example 2 post-emergence (foliage treatment) herbicidal activity, ABUTH. The format is in vivo. As to conditions: 63 g a.i./ha. In short, it runs like this: as §2
With `COc1cccc(C(=O)Nc2c(OC)c(Cl)cc(F)c2-c2nn(C)c(OC(F)F)c2Cl)c1` [Compound 1-28], the “growth controlling degree, ABUTH” value was found to be 100%.

The test system of the next test is corn (Zea mays L.), ZEAMX. Nature of the test: Test Example 2 post-emergence (foliage treatment) herbicidal activity, ZEAMX. The class given is in vivo. As to conditions: 63 g a.i./ha. In short, it runs like this:
as §2
On to `COc1cccc(C(=O)Nc2c(OC)c(Cl)cc(F)c2-c2nn(C)c(OC(F)F)c2Cl)c1` [Compound 1-28], for which the “growth controlling degree, ZEAMX” value came to 90%.

A further test has as its system wheat (Triticum aestivum L.): TRZAX. Nature of the test: Test Example 1 pre-emergence herbicidal activity, TRZAX. The class given is in vivo. The following applies: Rate 63 g a.i./ha, visually observed 20th to 23rd day after application. Put shortly:
as §1
`COc1cccc(C(=O)Nc2c(OC)c(Cl)cc(F)c2-c2nn(C)c(OC(F)F)c2Cl)c1` [Compound 1-28]: the “Pre-emergence Herbicidal Activity TRZAX (growth controlling degree)” value turned out to be 20%.

The subject of another test is green foxtail (Setaria viridis L.): SETVI. The test can be described thus: Test Example 1 pre-emergence herbicidal activity, SETVI. The class given is in vivo. As to conditions: Rate 63 g a.i./ha, visually observed 20th to 23rd day after application. In short, it runs like this: as §1
With `COc1cccc(C(=O)Nc2c(OC)c(Cl)cc(F)c2-c2nn(C)c(OC(F)F)c2Cl)c1` [Compound 1-28], the “Pre-emergence Herbicidal Activity SETVI (growth controlling degree)” value was 100%.

The next test deals with barnyardgrass (Echinochloa crus-galli L.): ECHCG. Nature of the test: Test Example 1 pre-emergence herbicidal activity, ECHCG. The format is in vivo. The following applies: Rate 63 g a.i./ha, visually observed 20th to 23rd day after application. In short, it runs like this: as §1
On to `COc1cccc(C(=O)Nc2c(OC)c(Cl)cc(F)c2-c2nn(C)c(OC(F)F)c2Cl)c1` [Compound 1-28], for which the “Pre-emergence Herbicidal Activity ECHCG (growth controlling degree)” value was determined as 80%.

Another test deals with barnyardgrass (Echinochloa crus-galli L.), ECHCG. The test can be described thus: Test Example 2 post-emergence (foliage treatment) herbicidal activity, ECHCG. The format is in vivo. The following applies: 63 g a.i./ha. In short, it runs like this: as §4
Regarding `COc1cccc(C(=O)Nc2c(OC)c(Cl)cc(F)c2-c2nn(C)c(OC(F)F)c2Cl)c1` [Compound 1-28], the “growth controlling degree, ECHCO” value stood at 100%.

A further test concerns crabgrass (Digitaria sanguinalis L.), DIGSA. Nature of the test: Test Example 2 post-emergence (foliage treatment) herbicidal activity, DIGSA. The class given is in vivo. As to conditions: 63 g a.i./ha. In short, it runs like this:
as §4
On to `COc1cccc(C(=O)Nc2c(OC)c(Cl)cc(F)c2-c2nn(C)c(OC(F)F)c2Cl)c1` [Compound 1-28], for which the “growth controlling degree, DIGSP” value came out at 100%.

For another test, the system named is wheat (Triticum aestivum L.), TRZAX. Nature of the test: Test Example 2 post-emergence (foliage treatment) herbicidal activity, TRZAX. The format is in vivo. As to conditions: 63 g a.i./ha. Put shortly: as §2
As for `COc1cccc(C(=O)Nc2c(OC)c(Cl)cc(F)c2-c2nn(C)c(OC(F)F)c2Cl)c1` [Compound 1-28], the “growth controlling degree, TRZAX” value was 40%.

The subject of the next test is rice (Oryza sativa L.: ORYSA). Nature of the test: Test Example 3 water application herbicidal activity (paddy), transplanted rice ORYSA. The format is in vivo. The following applies: 63 g a.i./ha, water application 4th day after transplantation of 2 leaf stage rice, visually observed 21st day after application; 0 = untreated control, 100 = complete kill. In short, it runs like this: as §3
In the case of `COc1cccc(C(=O)Nc2c(OC)c(Cl)cc(F)c2-c2nn(C)c(OC(F)F)c2Cl)c1` [Compound 1-28], the “growth controlling degrees (%) ORYSA” value is on record as 50%.

The subject of a further test is rice (Oryza sativa L.): ORYSA. Nature of the test: Test Example 1 pre-emergence herbicidal activity, ORYSA. As to conditions: Rate 63 g a.i./ha, visually observed 20th to 23rd day after application. The format is in vivo. In short, it runs like this: as §1
Turning to `COc1cccc(C(=O)Nc2c(OC)c(Cl)cc(F)c2-c2nn(C)c(OC(F)F)c2Cl)c1` [Compound 1-28], the “Pre-emergence Herbicidal Activity ORYSA (growth controlling degree)” value was found to be 60%.

Another test deals with prickly sida (Sida spinosa L.): SEDSP. Nature of the test: Test Example 1 pre-emergence herbicidal activity, SIDSP. The class given is in vivo. As to conditions: Rate 63 g a.i./ha, visually observed 20th to 23rd day after application. Put shortly: as §1
Regarding `COc1cccc(C(=O)Nc2c(OC)c(Cl)cc(F)c2-c2nn(C)c(OC(F)F)c2Cl)c1` [Compound 1-28], the “Pre-emergence Herbicidal Activity SIDSP (growth controlling degree)” value was determined as 100%.

The next test deals with japanese ribbon wapato (Sagittaria pygmaea: SA GPY). The test can be described thus: Test Example 3 water application herbicidal activity (paddy), SAGPY. The format is in vivo. As to conditions: 63 g a.i./ha, water application under submerged condition, tubers planted, visually observed 14th day after application; 0 = untreated control, 100 = complete kill. In short, it runs like this: as §3
Turning to `COc1cccc(C(=O)Nc2c(OC)c(Cl)cc(F)c2-c2nn(C)c(OC(F)F)c2Cl)c1` [Compound 1-28], the “growth controlling degrees (%) SAGPY” value worked out at 100%.

The test system of a further test is soybean (Glycine max Merr.), GLXMA. The test can be described thus: Test Example 2 post-emergence (foliage treatment) herbicidal activity, GLXMA. The class given is in vivo. As to conditions: 63 g a.i./ha. In short, it runs like this: as §2
Take `COc1cccc(C(=O)Nc2c(OC)c(Cl)cc(F)c2-c2nn(C)c(OC(F)F)c2Cl)c1` [Compound 1-28]: the “growth controlling degree, GLXMA” value came out at 98%.

In another test the test system is redroot pigweed (Amaranthus retroflexus L.), AMARE. Nature of the test: Test Example 2 post-emergence (foliage treatment) herbicidal activity, AMARE. The following applies: 63 g a.i./ha. The class given is in vivo. Put shortly:
as §4
In the case of `COc1cccc(C(=O)Nc2c(OC)c(Cl)cc(F)c2-c2nn(C)c(OC(F)F)c2Cl)c1` [Compound 1-28], the “growth controlling degree, AMARE” value came out at 100%.

Another test relates to green foxtail (Setaria viridis L.), SETVI. Nature of the test: Test Example 2 post-emergence (foliage treatment) herbicidal activity, SETVI. The format is in vivo. The following applies: 63 g a.i./ha. Put shortly:
as §2
For `COc1cccc(C(=O)Nc2c(OC)c(Cl)cc(F)c2-c2nn(C)c(OC(F)F)c2Cl)c1` [Compound 1-28], the “growth controlling degree, SETVI” value is recorded as 100%.

Another test concerns corn (Zea mays L.): ZEAMX. Nature of the test: Test Example 1 pre-emergence herbicidal activity, ZEAMX. As to conditions: Rate 63 g a.i./ha, visually observed 20th to 23rd day after application. The format is in vivo. In short, it runs like this: as §1
In the case of `COc1cccc(C(=O)Nc2c(OC)c(Cl)cc(F)c2-c2nn(C)c(OC(F)F)c2Cl)c1` [Compound 1-28], the “Pre-emergence Herbicidal Activity ZEAMX (growth controlling degree)” value is recorded as 0%.

The values above are taken from US20050245399A1, “Pyrazole derivatives as herbicidal compositions containing them” (ISHIHARA SANGYO KAISHA, LTD., priority 2004, published 2005).
